According to US12343318B2, “Use of compound or medicinal derivative thereof in inhibiting AIM2 protein activity” (Liangdan Sun, priority 2023, dated 2025):
pKd: −log10 of the molar value.

Key:
[1] = molecular target: T1, human AIM2 protein (Homo sapiens, UniProt O14862); experiment: Affinity by SPR (Biacore, CM5 chip amino-coupling), human AIM2; settings: human full-length AIM2 protein, read-out: binding constant KD
T1 construct: a human full-length AIM2 protein is expressed and purified firstly by pET28A vector; made in house
T1 sequence (O14862 1-343): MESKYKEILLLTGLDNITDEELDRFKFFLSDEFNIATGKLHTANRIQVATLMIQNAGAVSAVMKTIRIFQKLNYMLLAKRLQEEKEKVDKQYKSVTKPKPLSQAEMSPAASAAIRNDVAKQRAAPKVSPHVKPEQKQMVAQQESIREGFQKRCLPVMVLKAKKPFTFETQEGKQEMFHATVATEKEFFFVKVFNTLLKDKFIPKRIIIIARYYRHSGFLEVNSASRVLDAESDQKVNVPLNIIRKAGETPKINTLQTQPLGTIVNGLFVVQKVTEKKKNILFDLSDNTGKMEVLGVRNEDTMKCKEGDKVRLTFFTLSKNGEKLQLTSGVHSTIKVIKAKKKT
Description: In the embodiment of the disclosure, the affinity between T6S1683 and human AIM2 protein is detected. Specifically, a human full-length AIM2 protein is expressed and purified firstly by pET28A vector, and then the affinity is determined by CM5 chip amino-coupling method through a surface-plasmon resonance (SPR) method of Biacore.

[2] = molecular target: T2, mouse AIM2 protein (Mus musculus, UniProt Q91VJ1); experiment: Affinity by SPR (Biacore, CM5 chip amino coupling), mouse AIM2; settings: mouse full-length AIM2 protein, read-out: binding constant KD
T2 construct: a mouse full-length AIM2 protein is expressed and purified firstly by pET28A vector; made in house
T2 sequence (Q91VJ1 1-354): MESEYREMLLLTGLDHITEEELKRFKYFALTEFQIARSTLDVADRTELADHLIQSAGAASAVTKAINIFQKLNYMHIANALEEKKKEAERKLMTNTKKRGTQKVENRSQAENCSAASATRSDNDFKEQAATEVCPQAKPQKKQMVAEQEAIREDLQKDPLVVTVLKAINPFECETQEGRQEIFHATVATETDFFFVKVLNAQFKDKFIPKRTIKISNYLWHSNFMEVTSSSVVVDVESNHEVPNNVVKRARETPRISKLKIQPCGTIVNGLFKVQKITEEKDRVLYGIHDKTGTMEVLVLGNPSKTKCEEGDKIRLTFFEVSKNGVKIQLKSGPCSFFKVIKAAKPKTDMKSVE
Description: In the embodiment of the disclosure, the affinity between T6S1683 and mouse AIM2 protein is detected. Specifically, a mouse full-length AIM2 protein is expressed and purified firstly by pET28A vector, and then the affinity is determined by CM5 chip amino coupling method by the SPR method of Biacore.

[3] = tested on: IL-1β mRNA in HaCaT cells; experiment: Real-time fluorescence PCR of IL-1β mRNA in HaCaT cells stimulated by OligodA-T; type: cell-based; settings: 10 uM, 24 hours
Description: The protective ability of 44 compounds screened above against cell pyroptosis of HaCaT cells stimulated by OligodA-T is evaluated by the real-time fluorescent quantitative polymerase chain reaction (PCR) detection of IL-1β mRNA in the stimulated cells. […] Positive control (PC) and negative control (NC) are set in the experimental group. An inclusion of Lip3000 (Lipofectamine™ 3000 Transfection Reagent) and OligodA-T (OligodA-T: Lip3000:P3000=1:1:25, a concentration of OligodA-T is 1 microgram per […] abbreviated as ug/mL) is used to transfect HaCat cells. […] Each experimental group is incubated in a cell incubator containing 5% CO2 for 24 hours at 37° C., and the cells are collected for real-time fluorescence PCR detection.
• (1) A positive control (PC), a negative control (NC) and respective treatment groups are set. […] The HaCat cells are co-transfected with inclusions of Lip3000-OligodA-T at gradient doses (0.1 uM, 1 uM, 5 uM, 10 uM and 25 uM) of T6S1683 in the respective treatment groups. • (2) The positive control (PC), the negative control (NC) and the respective treatment groups are incubated in a cell incubator containing 5% CO2 at 37° C. for 24 hours, and the cells are collected for real-time fluorescence PCR detection to observe the effects of different doses of inhibitors on the activation of AIM2 pathway in the HaCaT cells.

[4] = tested on: HaCaT cells; experiment: Cell state (pyroptosis) of OligodA-T transfected HaCaT cells under microscope; type: cell-based; settings: 10 uM, microscope 100×
[5] = tested on: AIM2 downstream protein in HaCat cells; experiment: AIM2 downstream protein expression in HaCaT cells (Western Blot, ELISA); type: cell-based; settings: 10 uM
[6] = tested on: IMQ mice; experiment: IMQ psoriasis mouse model: PASI scores, skin and pathological phenotypes; type: in vivo, C57/BL6 mice
Description: (§1) In the embodiment of the disclosure, dimethyl sulfoxide (DMSO) is used to dissolve T6S1683 powder, the powder is weighed according to different dosage, then diluted with β-cyclodextrin, and a final concentration of DMSO shall not exceed 5%. The dose gradients of T6S1683 set are 0 mg/kg, 1 mg/kg, 2.5 mg/kg, 5 mg/kg and 10 mg/kg respectively. Each mouse is calculated as 20 grams (g), and 0 mg/kg, 1 mg/kg, 2.5 mg/kg, 5 mg/kg and 10 mg/kg of T6S1683 are administered respective mice every day.
Seven-week-old C57/BL6 mice are selected, fed and modeled in a […] (SPF) environment. The experimental groups are as follows. (a) mouse skin smeared with IMQ and 0 mg/kg of T6S1683; (b) mouse skin smeared with IMQ and 1 mg/kg of T6S1683; (c) mouse skin smeared with IMQ and 2.5 mg/kg of T6S1683; (d) mouse skin smeared with IMQ and 5 mg/kg of T6S1683; (e) mouse skin smeared with IMQ and 10 mg/kg of T6S1683; (f) mouse skin smeared with Vaseline and 0 mg/kg of T6S1683; (g) mouse skin smeared with Vaseline and 1 mg/kg of T6S1683; (h) mouse skin smeared with Vaseline and 2.5 mg/kg of T6S1683; (i) mouse skin smeared with Vaseline and 5 mg/kg of T6S1683; and (j) mouse skin smeared with Vaseline and 10 mg/kg of T6S1683. (Note: the daily dosage of IMQ in groups (a), (b), (c), (d) and (e) is 62.5 mg/mouse, and the daily dosage of Vaseline in groups (f), (g), (h), (i) and (j) is 62.5 mg/mouse.)
Six mice in each group above, and the mice are shaved back hair to make an exposed skin reach 4 square centimeters. A start date of the experiment is set as Day 0 and an end date is set as Day 6. From Day 0 to Day 5, 500 μL medicine solution is applied daily and evenly smeared mouse skin to absorb, with 500 uL applied in the morning at a dose of 150 uL, at noon at 200 uL, and at night at 150 uL. […] The mouse skins are scored every day, the mice are sacrificed on Day 6, and skin tissue is taken for a series of tests. […]

[7] = tested on: TCRγ/CD3^+RORγt cells in the lymphocytes of mouse skin; experiment: Flow cytometry of skin lymphocytes of IMQ mice; type: in vivo, C57/BL6 mice; settings: 5 mg/kg, smeared on skin
Description: as §1
(§2) Seven-week-old C57/BL6 mice are selected, fed and modeled in a […] (SPF) environment. The experimental groups are as follows. […]
(§3) Six mice in each group above, and the mice are shaved back hair to make an exposed skin reach 4 square centimeters. […] The mouse skins are scored every day, the mice are sacrificed on Day 6, and skin tissue is taken for a series of tests.
Next, skin lymphocytes of the mice in each group (proportion of TCRγ/CD3^+RORγt cells in the lymphocytes of mouse skin, which are the main effector cells mediated by AIM2 pathway in psoriasis and can secrete a large amount of IL-17 cytokines to aggravate psoriasis) are detected by flow cytometry.

[8] = tested on: IL-1β gene expression in the mouse skin; experiment: Transcription levels of AIM2 pathway genes in skin of IMQ mice; type: in vivo, C57/BL6 mice; settings: 5 mg/kg, smeared on skin
Description: as §1, §2, §3

In the case of COc1cc(/C=C/C(=O)CC(=O)/C=C/c2ccc(O)cc2)ccc1O [T6S1683, 1,6-heptadiene-3,5-dione,1-(4-hydroxy-3-methoxyphenyl)-7-(4-hydroxyphenyl)-,(1E, 6E)-], the pKd [1] was 5.81, the pKd [2] was 5.29 and the “IL-β transcription levels compared to the PC group” value ([3]; among 5 dose gradients (0.1, 1, 5, 10, 25 uM)) was “reduced IL-β transcription levels in the HaCat cells the most”. For the same molecule, the “inhibitory effect on IL-1β mRNA compared with the positive control” value ([3]; screening of 44 compounds, OligodA-T 1 ug/mL) was “most significant inhibitory effect”, the cell state [4] was “close to that of the NC group” and the “expression of AIM2 downstream protein (Western Blot)” value [5] was “slightly decreases”. The “secretion of IL-1β (ELISA)” value [5] was “inhibitory effect”, the “effect on inflammatory phenotype of IMQ mice” value ([6]; 1 mg/kg, smeared on skin) was “no difference” and the “reduction effect on inflammatory phenotype of IMQ mice” value ([6]; 5 mg/kg, smeared on skin) was “the most significant”. The “inflammatory phenotype of IMQ mice” value ([6]; three doses, smeared on skin daily Day 0 to Day 5) was “reduced the inflammatory phenotype of IMQ mice to varying degrees”, the “proportion of TCRγ/CD3^+RORγt compared with IMQ mice without T6S1683” value [7] was “significantly lower” and the “IL-1β gene expression level in mouse skin” value [8] was “significantly down-regulated”.
